Key:
Type in all cases: cell-based
HSC3 = assay: MTT assay, human cancer cells HSC3; settings: for IC50 of human cancer cells by MTT assay: HSC3, oral cancer, HAP agents particle diameter 0.1 μm or less; for Platinum content calculated from IC50 of human cancer cells by MTT assay: HSC3, IC50 converted to platinum concentration
Experimental: (§1) Effect of platinum tetrachloride/hydroxyapatite (PtCl4/HAP) and hexachloroplatinate/hydroxyapatite (H2PtCl6/HAP) against human cancer cells (MTT assay)
(§2) According to “in vitro toxicity test using MTT”, which is an ordinary test method, MTT assay was performed for PtCl4/HAP (particle diameter 0.1 μm or less), and H2PtCl6/HAP (particle diameter 0.1 μm or less) by using 19 types of human cancer cells. PtCl4/HAP and H2PtCl6/HAP were used by adjusting the final dispersion concentration to 1.0% in a dispersion liquid each containing 10% platinum as a theoretical value. For comparison, MTT assay was performed for PtCl4 and CDDP. PtCl4 was dissolved at an adequate dose, and then used after serial dilution with PBS (−). For CDDP, injection liquid from Malco was used.

A431 = assay: MTT assay, human cancer cells A431; settings: for IC50 of human cancer cells by MTT assay: A431, squamous cell cancer, HAP agents particle diameter 0.1 μm or less; for Platinum content calculated from IC50 of human cancer cells by MTT assay: A431, IC50 converted to platinum concentration
Experimental: as §1, §2

YES3 = assay: MTT assay, human cancer cells YES3; settings: for IC50 of human cancer cells by MTT assay: YES3, esophageal cancer, HAP agents particle diameter 0.1 μm or less; for Platinum content calculated from IC50 of human cancer cells by MTT assay: YES3, IC50 converted to platinum concentration
Experimental: as §1, §2

[1] = tested on: fibroblasts during resting stage; assay: Toxicity test during resting stage (MTT assay); settings: rat fibroblasts, confluent, 48 hours; for IC50 in the toxicity test during resting stage: HAP agents particle diameter 0.1 μm or less
From the text: (§3) A male mature rat was deeply anesthetized with ether, and disinfected by wiping carefully its tail with alcohol. The tail end part was cut by several centimeters, and the skin was removed from coccyx. Tendon was attached to the coccyx, and by culturing the same, fibroblasts can be recovered. Coccyx part was further cut finely with a sterilized pair of scissors, and adhered on a sterilized plastic plate with the cut surface down. After resting the plate for a while, DMEM supplemented with 10% FBS was added thereto. In approximately one week, fibroblasts germinated from the coccyx part, and proliferated in the plate. The fibroblasts collected from rat tail end were used for the following experiment.
Rat fibroblasts during proliferating stage were inoculated 2 times more than usual to a 96-well plate, that 100 μl of cell suspension at 2×10^4 cells/ml. Subsequently, it was cultured for 72 hours, in order to make cells in a confluent condition. After confirming with an inverted microscope that cells were in a complete confluent condition in each well, medium of each well was changed. Then, serially diluted test samples were added to the wells by aliquot of 10 μl, by the above-mentioned method. Culture was continued 48 hours after the addition, and subsequently, MTT assay was performed for PtCl4/HAP (particle diameter 0.1 μm or less), and H2PtCl6/HAP (particle diameter 0.1 μm or less), with similar procedures to those described in the above “toxicity test of PtCl4/HAP and H2PtCl6/HAP during proliferation stage”.

[2] = tested on: human lung cancer cell Lu65; assay: MTT assay, human lung cancer cell Lu65; settings: for IC50 of human cancer cells by MTT assay: Lu65, lung cancer, HAP agents particle diameter 0.1 μm or less (Table 1); for Platinum content calculated from IC50 of human cancer cells by MTT assay: Lu65, IC50 converted to platinum concentration (Table 2)
Experimental: as §1, §2

LoVo = assay: MTT assay, human cancer cells LoVo; settings: for Platinum content calculated from IC50 of human cancer cells by MTT assay: IC50 converted to platinum concentration; for IC50 of human cancer cells by MTT assay: colon cancer, HAP agents particle diameter 0.1 μm or less
Experimental: as §1, §2

[3] = tested on: fibroblasts during proliferation stage; assay: Toxicity test during proliferation stage (MTT assay); settings: rat fibroblasts, 48 hours; for IC50 in the toxicity test during proliferation stage: HAP agents particle diameter 0.1 μm or less
From the text: as §3
According to “in vitro toxicity test method using MTT” which is an ordinary test method, MTT assay was performed for PtCl4/HAP (particle diameter 0.1 μm or less) and H2PtCl6/HAP (particle diameter 0.1 μm or less). PtCl4/HAP and H2PtCl6/HAP were used by adjusting the final dispersion concentration to 1.0%, with a dispersion liquid each containing 10% platinum as a theoretical value. For comparison, MTT assay was performed for PtCl4 and CDDP. PtCl4 was dissolved at an adequate dose, and then used after serial dilution with PBS (−) For CDDP, injection liquid from Malco was used.
Fibroblasts during proliferation stage on the plate were peeled off with trypsin-EDTA, adjusted to 1×10^4/ml, and poured by aliquot of […] in a 96-well plate.
The 96-well plate added with fibroblasts was cultured for 24 hours, and samples serially diluted with PBS (−) were added by an amount of 10 μl. 48 hours after adding a test sample, 200 μl of PBS (−) was added to the 96-well plate, and approximately 1 min after, all the solution was removed. Immediately, 160 μl of DMSO was added to the plate. However, to the plates in which PtCl4/HAP and H2PtCl6/HAP were added, DMSO was added in an amount of 200 μl, respectively. Each plate was shaken for 5 min in a shaker, to dissolve completely the formed formazan. As it was believed that precipitation of PtCl4/HAP and H2PtCl6/HAP would suppress the colorization, the plates of PtCl4/HAP and H2PtCl6/HAP were rested for 5 min, and 160 μl of the supernatant was moved to another 96-well plate. Test samples for each cell and each concentration, the test was performed for 4 wells or more, and the optical density was measured by using a microplate at 550 nm.

HSC4 = assay: MTT assay, human cancer cells HSC4; settings: for IC50 of human cancer cells by MTT assay: HSC4, oral cancer, HAP agents particle diameter 0.1 μm or less; for Platinum content calculated from IC50 of human cancer cells by MTT assay: HSC4, IC50 converted to platinum concentration
Experimental: as §1, §2

YES5 = assay: MTT assay, human cancer cells YES5; settings: for IC50 of human cancer cells by MTT assay: YES5, esophageal cancer, HAP agents particle diameter 0.1 μm or less; for Platinum content calculated from IC50 of human cancer cells by MTT assay: YES5, IC50 converted to platinum concentration
Experimental: as §1, §2

YES2 = assay: MTT assay, human cancer cells YES2; settings: for IC50 of human cancer cells by MTT assay: YES2, esophageal cancer, HAP agents particle diameter 0.1 μm or less; for Platinum content calculated from IC50 of human cancer cells by MTT assay: YES2, IC50 converted to platinum concentration
Experimental: as §1, §2

NUGC-4 = assay: MTT assay, human cancer cells NUGC-4; settings: for IC50 of human cancer cells by MTT assay: NUGC-4, gastric cancer, HAP agents particle diameter 0.1 μm or less; for Platinum content calculated from IC50 of human cancer cells by MTT assay: NUGC-4, IC50 converted to platinum concentration
Experimental: as §1, §2

Kato-III = assay: MTT assay, human cancer cells Kato-III; settings: for Platinum content calculated from IC50 of human cancer cells by MTT assay: KATO-III, IC50 converted to platinum concentration; for IC50 of human cancer cells by MTT assay: Kato-III, gastric cancer, HAP agents particle diameter 0.1 μm or less
Experimental: as §1, §2

YES4 = assay: MTT assay, human cancer cells YES4; settings: for IC50 of human cancer cells by MTT assay: YES4, esophageal cancer, HAP agents particle diameter 0.1 μm or less; for Platinum content calculated from IC50 of human cancer cells by MTT assay: YES4, IC50 converted to platinum concentration
Experimental: as §1, §2

[4] = tested on: human lung cancer cell Lu99; assay: MTT assay, human lung cancer cell Lu99; settings: for IC50 of human cancer cells by MTT assay: Lu99, lung cancer, HAP agents particle diameter 0.1 μm or less (Table 1); for Platinum content calculated from IC50 of human cancer cells by MTT assay: Lu99, IC50 converted to platinum concentration (Table 2)
Experimental: as §1, §2

HeLa = assay: MTT assay, human cancer cells HeLa; settings: for Platinum content calculated from IC50 of human cancer cells by MTT assay: IC50 converted to platinum concentration; for IC50 of human cancer cells by MTT assay: cervical cancer, HAP agents particle diameter 0.1 μm or less
Experimental: as §1, §2

Structure (SMILES)	IC50 of human cancer cells by MTT assay (HSC3)	Platinum content calculated from IC50 of human cancer cells by MTT assay (HSC3)	IC50 of human cancer cells by MTT assay (A431)	Platinum content calculated from IC50 of human cancer cells by MTT assay (A431)	IC50 of human cancer cells by MTT assay (YES3)	Platinum content calculated from IC50 of human cancer cells by MTT assay (YES3)	Net Pt: platinum content wherein IC50 is converted to platinum concentration, resting stage [1]	IC50 in the toxicity test during resting stage [1]	IC50 of human cancer cells by MTT assay [2]	Platinum content calculated from IC50 of human cancer cells by MTT assay [2]	Platinum content calculated from IC50 of human cancer cells by MTT assay (LoVo)	IC50 of human cancer cells by MTT assay (LoVo)	Net Pt: platinum content wherein IC50 is converted to platinum concentration, proliferation stage [3]	IC50 in the toxicity test during proliferation stage [3]	IC50 of human cancer cells by MTT assay (HSC4)	Platinum content calculated from IC50 of human cancer cells by MTT assay (HSC4)	IC50 of human cancer cells by MTT assay (YES5)	Platinum content calculated from IC50 of human cancer cells by MTT assay (YES5)	IC50 of human cancer cells by MTT assay (YES2)	Platinum content calculated from IC50 of human cancer cells by MTT assay (YES2)	other results
[Cl][Pt]([Cl])([Cl])[Cl] [PtCl4, platinum tetrachloride]	9.6 ppm	5.5 ppm	9.5 ppm	5.5 ppm	19.2 ppm	11.1 ppm	13.8 ppm	23.8 ppm	0.9 ppm	0.9 ppm	3.8 ppm	6.6 ppm	2.3 ppm	4.0 ppm	5.7 ppm	3.3 ppm	20.1 ppm	11.6 ppm	35.8 ppm	20.7 ppm	IC50 of human cancer cells by MTT assay (NUGC-4): 7.7 ppm; Platinum content calculated from IC50 of human cancer cells by MTT assay (NUGC-4): 4.5 ppm; Platinum content calculated from IC50 of human cancer cells by MTT assay (Kato-III): 3.4 ppm; IC50 of human cancer cells by MTT assay (Kato-III): 5.8 ppm; IC50 of human cancer cells by MTT assay (YES4): 14.6 ppm; Platinum content calculated from IC50 of human cancer cells by MTT assay (YES4): 8.5 ppm; IC50 of human cancer cells by MTT assay [4]: 1.1 ppm; Platinum content calculated from IC50 of human cancer cells by MTT assay [4]: 1.1 ppm; Platinum content calculated from IC50 of human cancer cells by MTT assay (HeLa): 4.0 ppm; IC50 of human cancer cells by MTT assay (HeLa): 7.0 ppm
[NH2][Pt]([NH2])([Cl])[Cl] [CDDP, cisplatin]	2.9 ppm	1.9 ppm	5.7 ppm	3.7 ppm	1.2 ppm	0.8 ppm	1.9 ppm	2.9 ppm	2.7 ppm	2.7 ppm	10.3 ppm	15.8 ppm	0.3 ppm	0.5 ppm	4.5 ppm	2.9 ppm	10.0 ppm	6.5 ppm	1.7 ppm	1.1 ppm	IC50 of human cancer cells by MTT assay (NUGC-4): 15.6 ppm; Platinum content calculated from IC50 of human cancer cells by MTT assay (NUGC-4): 10.1 ppm; Platinum content calculated from IC50 of human cancer cells by MTT assay (Kato-III): 1.8 ppm; IC50 of human cancer cells by MTT assay (Kato-III): 2.7 ppm; IC50 of human cancer cells by MTT assay (YES4): 1.3 ppm; Platinum content calculated from IC50 of human cancer cells by MTT assay (YES4): 0.8 ppm; IC50 of human cancer cells by MTT assay [4]: 0.8 ppm; Platinum content calculated from IC50 of human cancer cells by MTT assay [4]: 0.8 ppm; Platinum content calculated from IC50 of human cancer cells by MTT assay (HeLa): 1.4 ppm; IC50 of human cancer cells by MTT assay (HeLa): 2.1 ppm
